In publication PMC4466525, “Design, Synthesis and Structure-Activity Relationship Studies of Novel Survivin Inhibitors with Potent Anti-Proliferative Properties” (PLoS ONE, 2015):
Where two headings read alike, the source gives them in different places.

Experiments:
CYP3A = experiment: Cytochrome P450 inhibition, CYP3A; assay type: in vitro ADME; details: human liver microsomes 0.1 mg/mL
Protocol: (§1) All these experiments were performed by a contract research service company, Eurofins Panlabs Inc. (Study Number 100017964). Aqueous solubility (μM) was determined using the shake-flask method by comparing the peak area of the principal peak in a calibration standard (200 μM) containing organic solvent (methanol/water, 60/40, v/v) with the peak area of the corresponding peak in a buffer sample. Metabolic stability study was carried out by incubating compound 4g with human liver microsomes. Metabolic stability which is expressed as percent of the parent compound remaining, was calculated by comparing the peak area of the compound at the time point relative to that at time-0. The half-life (T1/2) was estimated from the slope of the initial linear range of the logarithmic curve of compound remaining (%) vs. time. In the cytochrome P450 inhibition study, human liver microsomes (0.1 mg/mL) were incubated with different substrates and compound 4g for 10 minutes. After the incubation, peak areas corresponding to the metabolite of each substrate were recorded. The percent of control activity was then calculated by comparing the peak area obtained in the presence of compound 4g to that obtained in the absence of compound 4g. Subsequently, the percent inhibition was calculated by subtracting the percent control activity from 100.

survivin [1] = target: T1, survivin (Homo sapiens, UniProt O15392); experiment: DARTS assay, survivin; assay type: binding; details: 20 μM, pronase-digested A375 or M14 cell lysates
T1 construct: endogenous in cells; host or cells: A375 cells
Protocol: Drug affinity responsive target stability (DARTS) assay was performed to identify the protein targets of UC-112 analogs in A375 or M14 cell lysates following the protocols described in the literature. Briefly, A375 or M14 lysates were prepared in non-denaturing M-PER lysis buffer (Thermo Fisher Scientific, Waltham, MA) with protease and phosphatase inhibitors. Then TNC (Tris, NaCl, CaCl2) buffer was added into cell lysates before the total protein concentration of lysate being determined by BCA protein assay kit (Thermo Fisher Scientific, Waltham, MA). The lysates were split into two groups: one group was added with compound of interest solution, the other group was added with same amount of vehicle (DMSO). The samples were mixed thoroughly and incubated at room temperature for 1 h. Then 10 mg/mL pronase stock solution was added into both compound treated or vehicle control groups to achieve the final dilution of 1:100, 1:300, 1:1000 and 1:3000. One aliquot of each group was kept as un-digested control. The proteolysis was performed at room temperature for 30 min before ice cold protease inhibitor stock being added into the mixture. Then SDS loading buffer was added into all the samples and heated to 70°C for 10 min. Finally, the results were analyzed by SDS-PAGE and immunoblotting.

M14 = experiment: Cell viability (MTS) anti-proliferative assay, M14; assay type: cell-based; details: M14 human melanoma, 48 h treatment, n = 4, read-out: IC50 values ± SEM, M14
Protocol: (§2) The anti-proliferative effect of UC-112 and its analogs were tested in human melanoma (A375, M14 and M14/LCC6MDR1) and human prostate cancer (PC-3) cell lines. All the cell lines were purchased from ATCC (American Type Culture Collection, Manassas, VA). The cancer cells were cultured using the supplemented cell culture medium as described before at 37°C in a humidified atmosphere containing 5% CO2. 5000 cells in logarithm growing phase were seeded overnight into each well of a 96-well plate. Then the cells were continuously incubated with sequential diluted compound solution (10 nM to 100 μM, 100 μl per well) in cell culture medium.

survivin [2] = target: T1, survivin; experiment: Western blotting of survivin level, A375 cells; assay type: cell-based
Protocol: (§3) Lysates of A375 cells treated by the compound solution for 24 h were used to determine the change of IAP protein levels through western blotting. Primary rabbit antibodies against survivin, XIAP, cIAP1, cIAP2, livin and GAPDH were purchased from Cell Signaling Technology, Inc. (Danvers, MA) and used according to manufacture instructions as reported previously. Protein lane intensities were quantified by ImageJ software (US National Institutes of Health, Bethesda, MD).

PC-3 = experiment: Cell viability (MTS) anti-proliferative assay, PC-3; assay type: cell-based; details: PC-3 human prostate cancer, 48 h treatment, n = 4, read-out: IC50 values ± SEM, PC-3
Protocol: as §2

M14/LCC6MDR1 = experiment: Cell viability (MTS) anti-proliferative assay, multidrug-resistant M14/LCC6MDR1; assay type: cell-based, human
Protocol: as §2

CYP1A = target: T2, CYP1A (Homo sapiens, UniProt P05177); experiment: Cytochrome P450 inhibition, CYP1A; assay type: in vitro ADME; details: probe phenacetin, substrate phenacetin, human liver microsomes 0.1 mg/mL, read-out: % inhibition of control values, CYP1A
T2 construct: tissue Eurofins Panlabs Inc. (contract research service) Study Number 100017964; host or cells: human liver microsomes
Protocol: as §1

[3] = test system: other IAPs (XIAP, cIAP1, cIAP2, livin); experiment: Western blotting of other IAP levels; assay type: cell-based, human; details: 24 h, A375 and PC-3 cells
Protocol: as §3

CYP2C9 = target: T3, CYP2C9 (Homo sapiens, UniProt P11712); experiment: Cytochrome P450 inhibition, CYP2C9; assay type: in vitro ADME; details: probe diclofenac, substrate diclofenac, human liver microsomes 0.1 mg/mL, read-out: % inhibition of control values, CYP2C9
T3 construct: tissue Eurofins Panlabs Inc. (contract research service) Study Number 100017964; host or cells: human liver microsomes
Protocol: as §1

[4] = test system: human melanoma A375 xenograft; experiment: In vivo anti-tumor efficacy, A375 xenograft; set-up: species or system nude mouse
Excerpt: 3 × 10^6 A375 cells were implanted into the left-side dorsal flank of each nude mouse (n = 5) to establish the human melanoma A375 tumor xenograft model as described previously. Compound 4g were first dissolved in DMSO then diluted by 2% methylcellulose PBS buffer. The proportion of DMSO in final solution was kept at lower than 5%. Mice body weight and the size of tumor were closely monitored during the 3 week continuous treatment (i.p. injection, one dose per day, five days per week). At the end point of the treatment, mice were sacrificed after anesthesia. A375 tumor tissues were isolated then freshly lysed on ice to check the targeted protein levels through Western blotting.
A375 tumor tissues collected from the in vivo efficacy study in the above were fixed in formalin phosphate buffer for one week. Then the tissues were processed to get paraffin embedded sections. TUNEL assay was performed using DeadEnd Fluorometric kit (Promega Corporation, Madison, WI) following manufacturer’s instructions. By the end of the experiment, VECTASHIELD Hard Set mounting medium with DAPI (Vector Lab, Inc., Burlingame, CA) was used to mount the tumor slides and stain the nuclei. The final slides were analyzed immediately under a fluorescence microscope (EVOS FL Cell Imaging System, Thermo Fisher Scientific Inc., NY).

T1 sequence (O15392 whole entry): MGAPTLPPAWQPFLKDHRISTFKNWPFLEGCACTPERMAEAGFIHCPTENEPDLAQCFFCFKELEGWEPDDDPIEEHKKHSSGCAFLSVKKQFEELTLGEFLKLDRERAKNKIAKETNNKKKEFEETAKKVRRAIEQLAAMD
T3 sequence (P11712 whole entry): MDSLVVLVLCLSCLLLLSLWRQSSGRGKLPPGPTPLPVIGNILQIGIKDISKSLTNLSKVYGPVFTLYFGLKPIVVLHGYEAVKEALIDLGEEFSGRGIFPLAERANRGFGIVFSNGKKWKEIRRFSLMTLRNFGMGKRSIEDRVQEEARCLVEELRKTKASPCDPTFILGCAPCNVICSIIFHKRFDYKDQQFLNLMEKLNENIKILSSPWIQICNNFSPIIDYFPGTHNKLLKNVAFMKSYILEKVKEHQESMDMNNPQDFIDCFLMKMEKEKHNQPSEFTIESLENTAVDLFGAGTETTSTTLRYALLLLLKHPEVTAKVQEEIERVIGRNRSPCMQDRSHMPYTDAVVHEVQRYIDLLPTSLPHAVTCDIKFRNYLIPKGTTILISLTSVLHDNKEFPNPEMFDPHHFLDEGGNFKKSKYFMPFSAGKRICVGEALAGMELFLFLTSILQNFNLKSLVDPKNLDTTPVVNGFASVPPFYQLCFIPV
T2 sequence (P05177 2-516 limits assumed): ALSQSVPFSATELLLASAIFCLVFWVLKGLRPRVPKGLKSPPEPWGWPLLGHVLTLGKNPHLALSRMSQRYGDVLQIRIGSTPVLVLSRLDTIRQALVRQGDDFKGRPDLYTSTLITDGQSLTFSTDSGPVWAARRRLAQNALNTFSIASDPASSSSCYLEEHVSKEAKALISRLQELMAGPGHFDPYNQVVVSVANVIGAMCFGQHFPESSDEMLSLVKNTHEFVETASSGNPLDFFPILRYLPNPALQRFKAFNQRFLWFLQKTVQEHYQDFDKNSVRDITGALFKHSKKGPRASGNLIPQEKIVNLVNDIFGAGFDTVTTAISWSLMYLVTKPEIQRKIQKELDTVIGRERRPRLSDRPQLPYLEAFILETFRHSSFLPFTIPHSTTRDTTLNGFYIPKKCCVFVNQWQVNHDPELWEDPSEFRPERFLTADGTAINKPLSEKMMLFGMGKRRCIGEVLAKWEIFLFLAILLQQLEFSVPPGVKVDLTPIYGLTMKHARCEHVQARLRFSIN

SMILES: CC(C)c1ccc(COCc2cc(CN3CCCC3)c(O)c3ncccc23)cc1 [4g, 5-(((4-isopropylbenzyl)oxy)methyl)-7-(pyrrolidin-1-ylmethyl)quinolin-8-ol]
- inhibition at 10 min (CYP3A; probe midazolam, substrate midazolam, read-out: % inhibition of control values, CYP3A (midazolam)): 3%
- inhibition at 10 min (CYP3A; probe testosterone, substrate testosterone, read-out: % inhibition of control values, CYP3A (testosterone)): 29%
- Protease susceptibility of survivin (DARTS) (survivin [1]): significantly reduced
- IC50 (M14): 0.8 ± 0.2 µM
- Reduction of survivin level, A375 (survivin [2]; 300 nM, 24 h, A375 cells, lane density by ImageJ): over 50%
- IC50 values for survivin inhibition (survivin [2]; estimated from western blotting, A375 and PC-3 cells): low nanomolar range
- Effect on survivin level, A375 (survivin [2]; gradient increasing dose, 24 h, A375 cells): dose-dependently suppressed survivin level
- IC50 (PC-3): 0.7 ± 0.1 µM
- IC50 (M14/LCC6MDR1; Homo sapiens, 48 h, multidrug-resistant M14/LCC6MDR1 melanoma, 48 h treatment, MTS, n = 4, read-out: IC50 values ± SEM, M14/LCC6MDR1): 1.8 ± 0.4 µM
- Resistance Index (M14/LCC6MDR1; IC50 on M14/LCC6MDR1 divided by IC50 on parental M14): 2.3
- inhibition at 10 min (CYP1A): 18%
- Effect on levels of other IAPs [3]: minimally affected
- inhibition at 10 min (CYP2C9): 17%
- Tumor growth slower than vehicle control group, 20 mg/kg ([4]; 20 mg/kg i.p., three weeks, A375 xenograft): 53%
- Tumor growth slower than vehicle control group, 40 mg/kg ([4]; 40 mg/kg i.p., three weeks, A375 xenograft): 79%
- TUNEL assay of tumor tissues ([4]; 40 mg/kg, formalin-fixed tumor sections): widely-spread cell apoptosis
- Expression levels of survivin and XIAP protein in tumor tissues ([4]; Western blotting of A375 xenograft tumor tissues from treated groups): decreased
- Mice body weight ([4]; three weeks i.p. treatment): without causing obvious decrease of mice body weight
